From patent US20210260033A1, “COMBINED THERAPY WITH ICOS BINDING PROTEINS AND […] INHIBITORS” (GLAXOSMITHKLINE INTELLECTUAL PROPERTY DEVELOPMENT LIMITED, priority 2018, published 2021)
Read-outs that look alike come from different tables or passages of the source.

Assays:
[1] = rat, at 14-day MTD […] mg/kg
[2] = dog, at 21-day MTD […] mg/kg
lymphoma cell lines [3] = test: 6 and 10 day proliferation assays; format: cell-based, human; details: day 10 vs day 6
From the text: (§1) (B) Ymin-T0 at 6 day (light blue) and 10 day (dark blue) with corresponding gIC100 (red points).

AML cell lines [4] = test: 6 and 10 day proliferation assays; format: cell-based, human; details: day 10 vs day 6
From the text: as §1

Toledo DLBCL cells = test: western analysis of arginine methylation, timecourse; format: cell-based, human; details: 0.4 uM
Protocol: (B) Representative western blots of arginine methylation marks. Regions quantified are denoted by black bars on the right of the gel.
As predicted, ADMA methylation decreased while MMA increased upon compound exposure (FIG. 12). […] Given the detection of numerous substrates with varying kinetics, and variability of ADMA levels among DMSO-treated samples, both the full lane and a prominent 45 kDa band were characterized to assess ADMA. Increases in MMA were apparent by 24 hours and near maximal by 48 hours while decreases in the 45 kDa ADMA band required 72-96 hours to achieve maximal effect. Increases in SDMA were apparent after 48 hours of compound exposure and continued to increase through 120 hours, consistent with the potential switch from conversion of MMA to ADMA by Type I PRMTs to SDMA by Type II PRMTs (FIG. 12).

lymphoma cell lines [5] = test: 6-day growth-death assay (Cell Titer Glo); format: cell-based, human; details: Hodgkin's and non-Hodgkin's subtypes
Protocol: (§4) The growth of all cell lines was evaluated over time across a wide range of seeding densities to identify conditions that permitted proliferation throughout the entire 6-day assay. Cells were plated at the optimal seeding density and after overnight incubation, a 20-point 2-fold titration of compound was added and plates were incubated for 6 days. A replicate plate of cells was harvested at the time of compound addition to quantify the starting number of cells (T0). Values obtained after the 6 day treatment were expressed as a function of the T0 value and plotted against compound concentration. The T0 value was normalized to 100% and represents the number of cells at the time of compound addition. The data were fit with a 4 parameter equation to generate a concentration response curve and the growth IC50 (gIC50) was determined. The gIC50 is the midpoint of the ‘growth window’, the difference between the number of cells at the time of compound addition (T0) and the number of cells after 6 days (DMSO control). The growth-death assay can be used to quantify the net population change, clearly defining cell death (cytotoxicity) as fewer cells compared to the number at the time of compound addition (T0).

kidney cancer cell lines = test: 6-day growth-death assay (Cell Titer Glo); format: cell-based, human; details: renal cell carcinoma lines tested
Protocol: as §4

AML cell lines [6] = test: 6-day growth-death assay (Cell Titer Glo); format: cell-based, human; details: 10 cell lines
Protocol: as §4

[7] = tested on: panel of lymphoma cell lines; test: western dose response of arginine methylation; format: cell-based, human; details: all lymphoma cell lines evaluated; 72 hours
From the text: Regions quantified for (B) are denoted by black bars to the left of gels. […] Corresponding gIC50 values in 6-day growth death assay are as indicated in red.

U2932 = tested on: U2932
Protocol: (§2) FIG. 18: Propidium iodide FACS analysis of cell cycle in human lymphoma cell lines. […] Data represents the average±SEM of biological replicates, n=2.
(§3) By day 7, an increase in the sub-G1 population was apparent at concentrations ≥100 nM.

OCI-Ly1 = tested on: OCI-Ly1
Protocol: as §2, §3

AML cell lines [8] = test: Methylscan proteomic evaluation of arginine methylation; format: cell-based; details: AML cell lines treated with the tool compound vs DMSO
From the text: FIG. 3: Methylscan evaluation of cell lines treated with Compound D. Percent of proteins with methylation changes (independent of directionality of change) are categorized by functional group as indicated.
To identify putative PRMT1 substrates, a proteomic approach (Methylscan, Cell Signaling Technology) was utilized to identify proteins with changes in arginine methylation states in response to a tool PRMT1 inhibitor, Compound D. Protein fragments from Compound D- and DSMO-treated cell extracts were immunoprecipitated using methyl arginine specific antibodies (ADMA, MMA, SDMA), and peptides were identified by mass spectrometry.

CCOCC1(COCC)CCC(c2n[nH]cc2CN(C)CCNC)CC1 [Compound A]
Cave (total AUC or exposure) [1]: 2100 nM
Cave (total AUC or exposure) [2]: 3200 nM
effect of extended exposure on potency (gIC50) or cytotoxicity (Ymin-T0) (lymphoma cell lines [3]): minimal effects
effect of extended exposure on potency (gIC50) or cytotoxicity (Ymin-T0) (AML cell lines [4]): minimal effects
time to maximal decrease of the 45 kDa ADMA band (Toledo DLBCL cells): 72 to 96 h
change of ADMA methylation (Toledo DLBCL cells; up to 120 hours): decreased
change of MMA (Toledo DLBCL cells; up to 120 hours): increased
change of SDMA (Toledo DLBCL cells; up to 120 hours): increase
sensitivity by lymphoma subtype (lymphoma cell lines [5]): equally sensitive
cytotoxic response (kidney cancer cell lines): none of the lines tested showed a cytotoxic response
number of cell lines in which cytotoxicity was induced (AML cell lines [6]): 5 cell lines
45 kDa ADMA band [7]: decreased to undetectable levels
concentration at which sub-G1 effect was evident (U2932): 10 µM
concentration at which sub-G1 effect was evident (OCI-Ly1): 10 µM

CNCCN(C)Cc1c[nH]nc1[C@H]1CC[C@@]2(CC1)CC(C)(C)CO2 [Compound D]
proteins with changes in arginine methylation states (ADMA, MMA, SDMA) (AML cell lines [8]): the majority of substrates identified were transcriptional regulators and RNA processing proteins
